System: 941728-121-R-J1-PDC complex spheroid viability
Assay: Anticancer human tumor 941728-121-R-J1-PDC patient-derived lung adenocarcinoma cell line growth inhibition [RAS]
Settings: for IC50: curve of first compound; for viability, T/C: stronger effect = lower value
Procedure, shortened: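 Tumour cells grown as complex spheroids with HUVEC endothelial cells and mesenchymal stem cells, treated with RAS pathway inhibitor combinations. Each agent spans half-log steps from near clinical Cmax, or 10 microM where Cmax is unknown.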

[1] = second compound 0.00316 µM, first compound 0.0316 µM
[2] = second compound 0.00316 µM, first compound 0.1 µM
[3] = second compound 0.00316 µM, first compound 0.316 µM
[4] = second compound 0.00316 µM, first compound 1 µM
[5] = second compound 0.01 µM, first compound 0.0316 µM
[6] = second compound 0.01 µM, first compound 0.1 µM
[7] = second compound 0.01 µM, first compound 0.316 µM
[8] = second compound 0.01 µM, first compound 1 µM
[9] = second compound 0.0316 µM, first compound 0.0316 µM
[10] = second compound 0.0316 µM, first compound 0.1 µM
[11] = second compound 0.0316 µM, first compound 0.316 µM
[12] = second compound 0.0316 µM, first compound 1 µM
[13] = second compound 0.1 µM, first compound 0.0316 µM
[14] = second compound 0.1 µM, first compound 0.1 µM
[15] = second compound 0.1 µM, first compound 0.316 µM
[16] = second compound 0.1 µM, first compound 1 µM
[17] = second compound 0.316 µM, first compound 0.0316 µM
[18] = second compound 0.316 µM, first compound 0.1 µM
[19] = second compound 0.316 µM, first compound 0.316 µM
[20] = second compound 0.316 µM, first compound 1 µM
[21] = second compound 1 µM, first compound 0.0316 µM
[22] = second compound 1 µM, first compound 0.1 µM
[23] = second compound 1 µM, first compound 0.316 µM
[24] = second compound 1 µM, first compound 1 µM
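Also: spheroids exposed to compounds for 7 days before readout.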
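For viability, T/C in this document: 100% = DMSO vehicle control viability.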

Structure (SMILES): C[C@@H](NC(=O)c1ncnc(N)c1Cl)c1ncc(C(=O)Nc2cc(C(F)(F)F)c(Cl)cn2)s1 + C=CC(=O)N1CCN(c2nc(OCC3CCCN3C)nc3c(F)c(-c4nc(N)cc(C)c4C(F)(F)F)c(Cl)cc23)C(C)C1
- IC50 (second compound 0.00316 µM): < 31.6 nM
- IC50 (second compound 0.01 µM): < 31.6 nM
- IC50 (second compound 0.0316 µM): < 31.6 nM
- IC50 (second compound 0.1 µM): < 31.6 nM
- IC50 (second compound 0.316 µM): < 31.6 nM
- IC50 (second compound 1 µM): < 31.6 nM
- viability, T/C [1]: 21.6%
- viability, T/C [2]: 21%
- viability, T/C [3]: 21.2%
- viability, T/C [4]: 25.4%
- viability, T/C (second compound 0.00316 µM, first compound 3.16 µM): 23.1%
- viability, T/C (second compound 0.00316 µM, first compound 10 µM): 20.7%
- viability, T/C [5]: 26.2%
- viability, T/C [6]: 23.9%
- viability, T/C [7]: 23.3%
- viability, T/C [8]: 27.1%
- viability, T/C (second compound 0.01 µM, first compound 3.16 µM): 20.5%
- viability, T/C (second compound 0.01 µM, first compound 10 µM): 20.2%
- viability, T/C [9]: 22.3%
- viability, T/C [10]: 22%
- viability, T/C [11]: 20.9%
- viability, T/C [12]: 22%
- viability, T/C (second compound 0.0316 µM, first compound 3.16 µM): 23.5%
- viability, T/C (second compound 0.0316 µM, first compound 10 µM): 20.4%
- viability, T/C [13]: 26.8%
- viability, T/C [14]: 24.9%
- viability, T/C [15]: 22.5%
- viability, T/C [16]: 23.1%
- viability, T/C (second compound 0.1 µM, first compound 3.16 µM): 21.9%
- viability, T/C (second compound 0.1 µM, first compound 10 µM): 20.9%
- viability, T/C [17]: 20.1%
- viability, T/C [18]: 20.9%
- viability, T/C [19]: 21%
- viability, T/C [20]: 21.6%
- viability, T/C (second compound 0.316 µM, first compound 3.16 µM): 24.9%
- viability, T/C (second compound 0.316 µM, first compound 10 µM): 22.2%
- viability, T/C [21]: 23.4%
- viability, T/C [22]: 30.2%
- viability, T/C [23]: 22.1%
- viability, T/C [24]: 22.5%
- viability, T/C (second compound 1 µM, first compound 3.16 µM): 27.3%
- viability, T/C (second compound 1 µM, first compound 10 µM): 22.4%

Structure (SMILES): O=C(c1ccc(F)c(F)c1Nc1ccc(I)cc1F)N1CC(O)([C@@H]2CCCCN2)C1 + C=CC(=O)N1CCN(c2nc(OCC3CCCN3C)nc3c(F)c(-c4nc(N)cc(C)c4C(F)(F)F)c(Cl)cc23)C(C)C1
- IC50 (second compound 0.00316 µM): < 3.16 nM
- IC50 (second compound 0.01 µM): < 3.16 nM
- IC50 (second compound 0.0316 µM): < 3.16 nM
- IC50 (second compound 0.1 µM): < 3.16 nM
- IC50 (second compound 0.316 µM): < 3.16 nM
- IC50 (second compound 1 µM): < 3.16 nM
- viability, T/C (second compound 0.00316 µM, first compound 0.00316 µM): 20.4%
- viability, T/C (second compound 0.00316 µM, first compound 0.01 µM): 19.1%
- viability, T/C [1]: 15.5%
- viability, T/C [2]: 14.5%
- viability, T/C [3]: 12.7%
- viability, T/C [4]: 11.8%
- viability, T/C (second compound 0.01 µM, first compound 0.00316 µM): 18.9%
- viability, T/C (second compound 0.01 µM, first compound 0.01 µM): 14.6%
- viability, T/C [5]: 16.7%
- viability, T/C [6]: 12.9%
- viability, T/C [7]: 12.5%
- viability, T/C [8]: 11.6%
- viability, T/C (second compound 0.0316 µM, first compound 0.00316 µM): 16.1%
- viability, T/C (second compound 0.0316 µM, first compound 0.01 µM): 13.8%
- viability, T/C [9]: 13.3%
- viability, T/C [10]: 13.9%
- viability, T/C [11]: 13%
- viability, T/C [12]: 12.1%
- viability, T/C (second compound 0.1 µM, first compound 0.00316 µM): 22%
- viability, T/C (second compound 0.1 µM, first compound 0.01 µM): 13.5%
- viability, T/C [13]: 14.5%
- viability, T/C [14]: 13.8%
- viability, T/C [15]: 12.8%
- viability, T/C [16]: 10.9%
- viability, T/C (second compound 0.316 µM, first compound 0.00316 µM): 15%
- viability, T/C (second compound 0.316 µM, first compound 0.01 µM): 13.7%
- viability, T/C [17]: 13.9%
- viability, T/C [18]: 13.1%
- viability, T/C [19]: 12.4%
- viability, T/C [20]: 13.5%
- viability, T/C (second compound 1 µM, first compound 0.00316 µM): 16.4%
- viability, T/C (second compound 1 µM, first compound 0.01 µM): 17%
- viability, T/C [21]: 15.3%
- viability, T/C [22]: 13.2%
- viability, T/C [23]: 13.2%
- viability, T/C [24]: 11.1%

Reference: PubChem BioAssay AID2060896 (Molecular Pharmacology Branch, DTP, NCI, 2025)
